In US20200030305A1, “LOCAL ANESTHETIC-CONTAINING ACIDIC EMULSION COMPOSITION” (Maruishi Pharmaceutical Co., Ltd., priority 2017, published 2020):
Counter-ions that a name gives are not always drawn.

Assay: Oil-water partition ratio
Format: physicochemical
Conditions: 0.05% by mass aqueous solution vs oil phase soybean oil:MCT 1:1, 25° C.
Procedure: 5 g of an oil phase (soybean oil:medium-chain fatty acid triglyceride=1:1) was added to 5 g of a 0.05% by mass aqueous levobupivacaine hydrochloride solution, and the mixture was stirred with a vortex mixer for 1 minute. After that, the whole was transferred to a centrifugation tube and centrifuged at 3600 rpm at 25° C. for 10 minutes, and the aqueous phase was separated. The levobupivacaine concentration of the aqueous phase was measured by HPLC, and the oil-water partition ratio was determined.

- proportion present in the aqueous phase (oil-water partition ratio): 94.3%
Compound: CCCCN1CCCC[C@H]1C(=O)Nc1c(C)cccc1C [levobupivacaine hydrochloride, (2S)-1-butyl-N-(2,6-dimethylphenyl)piperidine-2-carboxamide]
